# According to patent US20250161297A1, “COMPOSITIONS AND METHODS FOR INHIBITING FSP1” (THE REGENTS OF THE UNIVERSITY OF CALIFORNIA, priority 2022, published 2025):
# Experiments:
# Assay type in all cases: cell-based
# H460^C FSP1KO cells = assay: RSL3-, DHA- or FINO2-induced cell death in FSP1 knockout cells
# Procedure: (§1) For cell-based screen, cells were seeded in triplicate at a density of 500-750 cells per 50 μL per well in black 384-well plates (NUNC) and (Corning) 24 hr before start of imaging. After 24 hr, an additional 50 μL of drug infused medium containing 30 nM SYTOX Green Dead Cell Stain was carefully placed into the wells on top of existing medium. The plates were immediately transferred to an IncuCyte S3 imaging system (Essen Bioscience) enclosed in an incubator set to 37° C. and 5% CO2. One image per well were captured in the phase, green, and red channels every 1.5 or 3 hr over a 24 hr period, and the ratio of SYTOX Green-positive objects (dead cells) to SYTOX Green-positive plus Sg-SAFE mCherry-positive objects (total cells) was quantified using S3 image analysis software (Essen Bioscience). For each treatment condition, the SYTOX-to-′SYTOX+mCherry′-object ratio was plotted against the 24 hr imaging interval, the Area Under the Curve (AUC) was calculated and the average AUC was plotted using Prism (GraphPad). To calculate the half-maximal effective concentration (EC50) values, the AUC curve was fit to a variable slope function comparing response to drug concentration.
# Synergy experiments: For cell-based synergy experiments, cells were seeded at a density of 750 cells per 25 μL per well in four black 384-well plates (Corning) 24 hr before start of imaging. […]
# A549 lung cancer cells = assay: RSL3-induced cell death in A549 cells
# Procedure: as §1, with “concentration. […]” for “concentration.”
# H460^C cells [1] = assay: DHA- and FINO2-induced cell death with FSEN1 co-treatment; settings: 1 μM FSEN1
# Procedure: as §1
# (§2) Synergy experiments: For cell-based synergy experiments, cells were seeded at a density of 750 cells per 25 μL per well in four black 384-well plates (Corning) 24 hr before start of imaging. After 24 hr, an additional 25 μL of drug infused medium containing 30 nM SYTOX Green Dead Cell Stain was carefully placed into the wells on top of existing medium. The plates were immediately transferred to an IncuCyte S3 imaging system (Essen Bioscience) enclosed in an incubator set to 37° C. and 5% CO2. One image per well were captured in the phase, green, and red channels every 4 hr over a 24 hr period, and the ratio of SYTOX Green-positive objects (dead cells) to SYTOX Green-positive plus Sg-SAFE mCherry-positive objects (total cells) was quantified using S3 image analysis software (Essen Bioscience). For each treatment condition, the SYTOX-to-′SYTOX+mCherry′-object ratio was plotted against the 24 hr imaging interval, the Area Under the Curve (AUC) was calculated, and the average AUC was plotted as a function of drug concentration (for example, RSL3) using Prism (GraphPad). To calculate the half-maximal effective concentration (EC50) values, the AUC curve was fit to a variable slope function comparing response to drug concentration.
# [2] = test system: panel of cancer cell lines of various tissue origins; assay: RSL3-induced cell death in a panel of cancer cell lines; settings: 1 μM FSEN1; lung, breast, liver, glial, bone, connective, lymphoid, skin lines
# Procedure: as §1, with “concentration. […]” for “concentration.”
# H460^C cells [3] = assay: GPX4 inhibitor-induced cell death with FSEN1 co-treatment
# Procedure: as §1, §2
# A375 melanoma cells = assay: cell death in A375 cells
# Procedure: as §1, with “concentration. […]” for “concentration.”
structure (smiles),measurement,setting,value
COc1ccc(N2CCN(Cc3cn4c(-c5ccc(Br)cc5)nnc4s3)CC2)cc1 [FSEN1],additional sensitizing effect to DHA and FINO2 induced cell death,H460^C FSP1KO cells; FSP1KO cells,no additional sensitizing effect
same,additional sensitization to RSL3-induced cell death,H460^C FSP1KO cells; H460^C FSP1KO cells,did not result in any additional sensitization
same,sensitizing effect on ferroptosis induction,A549 lung cancer cells,particularly large sensitizing effect
same,sensitization to cell death induced by DHA and FINO2,H460^C cells [1],strongly sensitized
same,sensitization to RSL3-induced ferroptosis,[2],sensitized all cancer cells
same,sensitization to GPX4 inhibitors RSL3 and ML162,H460^C cells [3],sensitized
same,ferroptosis in the absence of an RSL3 co-treatment,A375 melanoma cells,induced a small amount of ferroptosis
